Patent US5635510A, “Substituted pyrrolidin-3-yl-alkyl-piperidines” (Merrell Pharmaceuticals Inc., priority 1994, dated 1997)

Key:
[1] = biological target: T1, human jejunal NK2 receptor (Homo sapiens, UniProt P21452); experiment: Antagonism of iodinated neurokinin A binding to NK2 receptor, HSKR-1 cells (mouse 3T3 fibroblasts expressing the human jejunal NK2 receptor); details: for IC50: NK-2 IC50, HSKR-1 cells, 125I-neurokinin A, mean of several experiments
T1 construct: expressed in transfected cells; host or cells: HSKR-1 cells (mouse 3T3 fibroblasts)
T1 sequence (P21452 1-398): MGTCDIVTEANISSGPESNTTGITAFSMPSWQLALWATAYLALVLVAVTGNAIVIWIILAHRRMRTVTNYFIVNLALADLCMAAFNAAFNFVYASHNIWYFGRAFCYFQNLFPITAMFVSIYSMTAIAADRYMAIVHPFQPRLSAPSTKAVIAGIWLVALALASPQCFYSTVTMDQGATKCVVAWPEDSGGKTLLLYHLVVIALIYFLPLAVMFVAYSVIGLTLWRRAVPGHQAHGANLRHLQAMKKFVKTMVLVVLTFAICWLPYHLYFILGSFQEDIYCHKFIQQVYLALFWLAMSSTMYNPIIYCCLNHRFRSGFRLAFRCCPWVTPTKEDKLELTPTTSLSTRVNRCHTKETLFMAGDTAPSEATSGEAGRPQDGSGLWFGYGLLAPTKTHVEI
Experimental: (§1) ANTAGONISM OF IODINATED TACHYKININ BINDING TO NK1 AND NK2
(§2) RECEPTORS BY PUTATIVE ANTAGONISTS
(§3) The NK1 receptor affinity of proposed tachykinin antagonists was evaluated in guinea pig lungs (Keystone Biologicals, Cleveland, OH), affinity for the NK2 receptor evaluated in HSKR-1 cells (which are mouse 3T3 fibroblasts expressing the human jejunal NK2 receptor) and NK-3 receptor affinity was evaluated in freshly collected guinea pig cerebral cortex. Tissues or cells were homogenized with a Polytron in 15 volumes of 50 mM Tris-HCl buffer (pH 7.4, 4° C.) and centrifuged. The pellet was resuspended in Tris-HCl buffer and was centrifuged; the pellet was washed twice by resuspension. The final pellet was resuspended at a concentration of 40 mg/ml for tissues (guinea pig lung and cerebral cortex) and 20 mg/ml for cells in incubation buffer and remained at room temperature for at least 15 min prior to use. Receptor binding was initiated by addition of 250 ul membrane preparation in duplicate to 0.1 nM of the following radioligands: ^125 I-Bolton Hunter Lys-3 labeled substance P; ^125 iodohistidyl-1-neurokinin A; and ^125 I-Bolton Hunter labeled Lys-4 eledoisin in a final volume of 500 ul of buffer containing 50 mM Tris-HCl (pH 7.4 at room temperature), 0.1% bovine serum albumin, 2 mM MnCl2, 40 ug/ml bacitracin, 4 μg/ml leupeptin and chymostatin, 1 μM thiorphan and various doses of the putative tachykinin antagonists. Incubations were performed at room temperature for 90 min (NK1 receptor assays) or 2 hr (NK2 and NK3 receptor assays); binding was terminated by addition of 50 mM Tris-HCl buffer (pH 7.4, 4° C.) and filtration under vacuum through GF/B filters presoaked with 0.1% polyethyleneimine (NK1 receptor assays) or 0.5% bovine serum albumin (NK2 and NK3 receptor assays). Filter bound radioactivity was quantitated in a gamma counter. Nonspecific binding was defined as binding in the presence of 1 μM substance P, neurokinin A, or eledoisin. Specific binding was calculated by subtracting nonspecific binding from total binding. Competition of iodinated SP, NKA, or eledoisin binding by test compounds or standards was expressed as a percentage of this maximum competition. IC50 values (concentration required to inhibit 50% of receptor binding) were generated for each of the test compounds by nonlinear regression using an iterative curve fitting program (GraphPAD Inplot, San Diego, Calif.).

[2] = biological target: T2, NK-3 receptor (Cavia porcellus, UniProt P30098); experiment: Antagonism of iodinated eledoisin binding to NK3 receptor, guinea pig cerebral cortex
T2 construct: evaluated in freshly collected guinea pig cerebral cortex; from tissue; host or cells: guinea pig cerebral cortex
T2 sequence (P30098 1-440): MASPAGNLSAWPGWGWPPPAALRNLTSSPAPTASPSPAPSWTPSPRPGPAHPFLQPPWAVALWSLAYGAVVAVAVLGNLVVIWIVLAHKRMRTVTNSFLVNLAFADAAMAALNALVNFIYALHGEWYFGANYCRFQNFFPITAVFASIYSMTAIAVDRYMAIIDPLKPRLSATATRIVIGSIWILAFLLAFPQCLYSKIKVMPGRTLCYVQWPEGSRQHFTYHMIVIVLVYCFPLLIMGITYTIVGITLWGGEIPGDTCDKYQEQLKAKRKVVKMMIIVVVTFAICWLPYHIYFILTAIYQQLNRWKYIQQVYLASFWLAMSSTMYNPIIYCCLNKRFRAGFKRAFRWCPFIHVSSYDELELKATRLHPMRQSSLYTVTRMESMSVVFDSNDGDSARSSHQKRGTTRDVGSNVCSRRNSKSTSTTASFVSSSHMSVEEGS
Experimental: as §1, §2
as §3, with “Nonspecific binding was defined as binding in the presence of 1 μM substance P, neurokinin A, or eledoisin.” left out, “IC50 values (concentration required to inhibit 50% of receptor binding) were generated for each of the test compounds by nonlinear regression using an iterative curve fitting program (GraphPAD Inplot, San Diego, Calif.).” left out

[3] = biological target: T3, NK1 receptor (Cavia porcellus, UniProt P30547); experiment: Antagonism of iodinated substance P binding to NK1 receptor, guinea pig lung; details: for IC50: NK-1 IC50, guinea pig lung, 125I-substance P, mean of several experiments
T3 construct: evaluated in guinea pig lungs; tissue Keystone Biologicals, Cleveland, OH; host or cells: guinea pig lung
Experimental: as §1, §2, §3

[4] = biological target: T3, NK1 receptor; experiment: Antagonism of SP-induced plasma protein extravasation in guinea pig trachea; type: in vivo
Experimental: SP-induced protein leakage through postcapillary venules was assessed by measuring Evans Blue dye accumulation in guinea pig trachea. Animals were anesthetized with pentobarbital then injected with Evans Blue dye (20 mg/kg, i.v., prepared in 0.9% NaCl solution). One minute after dye administration, the antagonist was administered (i.v.) followed by SP (0.3 nmole/kg, i.v.) and, after 5 min, excess dye removed from the circulation by transcardiac perfusion with 50 ml 0.9% NaCl solution. The trachea and primary bronchi were removed, blotted dry and weighed. Dye quantitation was performed spectrophotometrically ([…]) after extracting tissues in formamide for 24 hr at 50° C.. Values were subtracted from background (dye only, no agonist). ED50 (dose of compound which inhibits SP-induced plasma protein extravasation by 50%) was calculated from linear regression analysis.

T3 sequence (P30547 whole entry): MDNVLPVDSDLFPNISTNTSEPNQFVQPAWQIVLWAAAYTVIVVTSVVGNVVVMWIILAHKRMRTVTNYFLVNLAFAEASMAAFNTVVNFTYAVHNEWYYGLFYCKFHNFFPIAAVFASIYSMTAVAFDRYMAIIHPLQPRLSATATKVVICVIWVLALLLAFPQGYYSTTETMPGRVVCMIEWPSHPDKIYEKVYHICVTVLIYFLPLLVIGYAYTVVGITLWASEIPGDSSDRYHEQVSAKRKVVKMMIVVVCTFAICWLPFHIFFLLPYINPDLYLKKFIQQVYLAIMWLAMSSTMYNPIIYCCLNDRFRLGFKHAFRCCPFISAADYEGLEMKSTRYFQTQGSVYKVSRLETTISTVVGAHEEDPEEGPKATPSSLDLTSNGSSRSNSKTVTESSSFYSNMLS

| Compound | IC50 [1] [nM] | IC50 ([2]; NK-3 IC50, guinea pig cerebral cortex, 125I-eledoisin, mean of several experiments) [nM] | IC50 [3] [nM] | ED50 ([4]; guinea pig, iv, i.v. 2 min prior to SP, mean (95% confidence limits), at least 3 doses, at least 4 animals per dose, read-out: ED50 for inhibition of SP-induced plasma protein extravasation) [mg/kg] | relative potency against SP-induced plasma protein extravasation (in words) ([4]; i.v.) | antagonism of SP-induced plasma protein extravasation (in words) ([4]; i.v., FIG. 2) | affinity for NK2 receptors (in words) ([1]; HSKR-1 cells) | affinity for NK3 receptors (in words) ([2]; guinea pig cerebral cortex) | affinity for NK1 receptors (in words) ([3]; guinea pig lung) |
| --- | --- | --- | --- | --- | --- | --- | --- | --- | --- |
| COc1cc(C(=O)N2CCC(CCN3CCC(C(N)=O)(c4ccccc4)CC3)(c3ccc(Cl)c(Cl)c3)C2)cc(OC)c1OC (single isomer, unassigned; (+)) [Example 20, (+)-1-[2-[3-(3,4-dichloro-phenyl)-1-(3,4,5-trimethoxy-benzoyl)-pyrrolidin-3-yl]-ethyl]-4-phenylpiperidine-4-carboxylic acid amide] | 8.4 | 21 | 4.65 | – | – | – | – | – | – |
| COc1cc(C(=O)N2CCC(CCN3CCC(C(N)=O)(c4ccccc4)CC3)(c3ccc(Cl)c(Cl)c3)C2)cc(OC)c1OC.Cl (single isomer, unassigned; (+)) [Example 20A, (+)-1-[2-[3-(3,4-dichloro-phenyl)-1-(3,4,5-trimethoxy-benzoyl)-pyrrolidin-3-yl]-ethyl]-4-phenyl-piperidine-4-carboxylic acid amide hydrochloride] | 7.93 | – | 2.99 | 0.2 | equipotent NK-1 receptor antagonists | – | – | – | – |
| COc1cc(C(=O)N2CCC(CCN3CCC(C(N)=O)(c4ccccc4)CC3)(c3ccc(Cl)c(Cl)c3)C2)cc(OC)c1OC (stereo not drawn) [Example 3, 1-[2-[3-(3,4-dichloro-phenyl)-1-(3,4,5-trimethoxy-benzoyl)-pyrrolidin-3-yl]-ethyl]-4-phenyl-piperidine-4-carboxylic acid amide] | – | – | – | – | equipotent NK-1 receptor antagonists | dose related antagonism of SP-induced plasma protein extravasation in guinea pig trachea | high affinity | high affinity | high affinity |
